# Reference: the supplement of paper PMC11451515
# Tested on: P12-Ichikawa
# Assay: cell viability relative to DMSO control; higher = less cytotoxic
# Settings: 48 h
# Outline: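 Library compounds in DMSO were pin-dosed into 1536-well plates (5 μl) holding NOMO1 or SEM (500 cells/well) or P12-Ichikawa (1000 cells/well) leukemia cells, across an 11-point threefold series of 47 μM to 0.79 nM. Each cell line had been adapted for at least four passages in each medium. CellTiter-Glo One luminescence was read after 48 h at 37°C. Viability is the per-plate percentage relative to DMSO wells, with cell-free wells as background.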
# [1] = HPLM + 10% dialyzed FBS, 0.000781 µM
# [2] = HPLM + 10% dialyzed FBS, 0.00234 µM
# [3] = HPLM + 10% dialyzed FBS, 0.00702 µM
# [4] = HPLM + 10% dialyzed FBS, 0.0211 µM
# [5] = HPLM + 10% dialyzed FBS, 0.0632 µM
# [6] = HPLM + 10% dialyzed FBS, 0.19 µM
# [7] = HPLM + 10% dialyzed FBS, 0.569 µM
# [8] = HPLM + 10% dialyzed FBS, 1.71 µM
# [9] = HPLM + 10% dialyzed FBS, 5.12 µM
# [10] = HPLM + 10% dialyzed FBS, 15.4 µM
# [11] = HPLM + 10% dialyzed FBS, 46.1 µM
# [12] = RPMI 5 mM glucose + 10% FBS, 0.000781 µM
# [13] = RPMI 5 mM glucose + 10% FBS, 0.00234 µM
# [14] = RPMI 5 mM glucose + 10% FBS, 0.00702 µM
# [15] = RPMI 5 mM glucose + 10% FBS, 0.0211 µM
# [16] = RPMI 5 mM glucose + 10% FBS, 0.0632 µM
# [17] = RPMI 5 mM glucose + 10% FBS, 0.19 µM
# [18] = RPMI 5 mM glucose + 10% FBS, 0.569 µM
# [19] = RPMI 5 mM glucose + 10% FBS, 1.71 µM
# [20] = RPMI 5 mM glucose + 10% FBS, 5.12 µM
# [21] = RPMI 5 mM glucose + 10% FBS, 15.4 µM
# [22] = RPMI 5 mM glucose + 10% FBS, 46.1 µM
# [23] = RPMI 5 mM glucose + 10% dialyzed FBS, 0.000781 µM
# [24] = RPMI 5 mM glucose + 10% dialyzed FBS, 0.00234 µM
# [25] = RPMI 5 mM glucose + 10% dialyzed FBS, 0.00702 µM
# [26] = RPMI 5 mM glucose + 10% dialyzed FBS, 0.0211 µM
# [27] = RPMI 5 mM glucose + 10% dialyzed FBS, 0.0632 µM
# [28] = RPMI 5 mM glucose + 10% dialyzed FBS, 0.19 µM
# [29] = RPMI 5 mM glucose + 10% dialyzed FBS, 0.569 µM
# [30] = RPMI 5 mM glucose + 10% dialyzed FBS, 1.71 µM
# [31] = RPMI 5 mM glucose + 10% dialyzed FBS, 5.12 µM
# [32] = RPMI 5 mM glucose + 10% dialyzed FBS, 15.4 µM
# [33] = RPMI 5 mM glucose + 10% dialyzed FBS, 46.1 µM
Structure (SMILES),cell viability [1] [%],cell viability [2] [%],cell viability [3] [%],cell viability [4] [%],cell viability [5] [%],cell viability [6] [%],cell viability [7] [%],cell viability [8] [%],cell viability [9] [%],cell viability [10] [%],cell viability [11] [%],cell viability [12] [%],cell viability [13] [%],cell viability [14] [%],cell viability [15] [%],cell viability [16] [%],cell viability [17] [%],cell viability [18] [%],cell viability [19] [%],cell viability [20] [%],cell viability [21] [%],cell viability [22] [%],cell viability [23] [%],cell viability [24] [%],cell viability [25] [%],cell viability [26] [%],cell viability [27] [%],cell viability [28] [%],cell viability [29] [%],cell viability [30] [%],cell viability [31] [%],cell viability [32] [%],cell viability [33] [%]
O=C(C1CC1)N1CC[C@@H](Cn2c(-c3ccc(-c4ccc5occc5c4)cc3)nc3cnccc32)C1,101,117,108,114,117,126,122,127,124,119,111,92.7,117,120,121,131,119,124,132,111,124,83.5,106,112,102,120,116,128,121,128,123,119,93
O=C1CCC[C@@H]2[C@H]3CCC[N+]4([O-])CCC[C@@H](CN12)[C@@H]34 (stereo not given in full),88.3,89.2,100,102,98.8,92.9,105,102,89.5,98.6,97.7,83.5,80.8,89.7,95.1,95.5,97.2,87.7,94.7,87.3,99.9,88,78.2,84.9,94.1,94,93,83.5,81.4,90.8,90,89.6,89.2
COc1ccc(C(=O)CC(=O)c2ccc(C(C)(C)C)cc2)cc1,105,112,113,110,120,116,119,113,118,108,97.2,101,97.6,104,106,116,111,103,109,112,106,90.7,98.1,107,111,112,110,119,117,113,120,110,91.1
CO[C@H]1/C=C/O[C@@]2(C)Oc3c(C)c(O)c4c(O)c(c(/C=N\N5CCN(C6CCCC6)CC5)c(O)c4c3C2=O)NC(=O)/C(C)=C\C=C\[C@H](C)[C@H](O)[C@@H](C)[C@@H](O)[C@@H](C)[C@H](OC(C)=O)[C@@H]1C,112,122,117,109,104,98.2,98.2,71.5,19.8,1.51,-0.607,–,87.9,93.7,78.7,70.7,70.7,68,51.8,5.83,0.395,-0.516,101,111,–,87.7,84.1,74.6,85.2,61.8,13.6,5.16,0.889
